Patent US12539406B2, “Electrostimulation based drug delivery system and method for using thereof” (City University of Hong Kong, priority 2022, dated 2026)

Legend:
[1] = long-term drug release from PLGA microneedle patches in PBS; type: physicochemical; settings: loaded in PLGA II microneedle patch, PBS solution at 37° C., after 15 days
Method: In addition, the long-term drug release performance of the PLGA II microneedle patch is conducted by loading aspirin and ibuprofen, which are two commonly used drugs in anti-inflammation. Aspirin- and ibuprofen-loaded PLGA microneedle patches are immersed in PBS solution at 37° C. for one month. […] The aspirin releases more than 80% while ibuprofen releases around 70% after 15 days, indicating a promising drug delivery performance of the PLGA microneedles.
Commercial aspirin (99%, Rhawn) or ibuprofen (98%, Macklin) were dissolved in chloroform and mixed with PLGA solution, where the mass of aspirin and ibuprofen are the weight ratio of 10% and 5% of PLGA polymers, respectively. Then the composite solution was added in a PDMS microneedle mold. The solutions in the mold were put in a vacuum over at 40° C. until no solvent remained. Finally, the solidified PLGA microneedles with mold were put at 100° C. heating stage for 2 h to remove residual solvent. After that, the obtained PLGA microneedles were heat pressed on the wireless electric stimulative electrodes, followed by depositing W (˜1000 nm) on the PLGA microneedle to yield the conductive microneedle electrodes.

[2] = model drug release into agarose gel; type: physicochemical; settings: PLGA II microneedle patch inserted into agarose gel, 5 days
Excerpt: The Rhodamine B-loaded PLGA II microneedle patch is then inserted into an agarose gel with a parafilm layer. The gel becomes red after the insertion of PLGA II microneedle patch loaded with Rhodamine B after 5 days while the control sample is still white. The insertion holes created by PLGA II with Rhodamine B show a higher florescence intensity (right panel in FIG. 4A) compared with that of the agar inserted by pure PLGA II microneedle patch (left panel in FIG. 4A).

drug release ratio [1] | release of model drug from microneedle tips (fluorescence) [2] | SMILES
around 70% |  | CC(C)Cc1ccc(C(C)C(=O)O)cc1 (stereo not drawn) [ibuprofen]
 | successfully released | CCN(CC)c1ccc2c(-c3ccccc3C(=O)O)c3ccc(=[N+](CC)CC)cc-3oc2c1.[Cl-] [Rhodamine B]
more than 80% |  | CC(=O)Oc1ccccc1C(=O)O [aspirin]
